This is an account of results in patent publication EP4806894A1, “TNAP INHIBITORY COMPOUND AND USE THEREOF” (Rednvia Co., Ltd., priority 2023, dated 2025).

The inhibition is the share of the control response that was lost under treatment. Usually IC50 stands for the concentration that gives 50% inhibition. Read a high IC50 as lower potency.

One assay relates to saos-2 cells. Briefly: Anticalcification efficacy in saos-2 cells (osteogenic medium, Alizarin Red staining). The format is cell-based. The conditions noted are these: Homo sapiens, 168 h, test compound 1 µM, 7 days osteogenic medium, Alizarin Red absorbance 540 nm, read-out: calcification inhibition. Here is the method: To confirm the inhibitory effect of calcification in saos-2 cells in which calcification is induced by overexpression of TNAP, saos-2 cells were cultured in a culture medium in an incubator at 37°C, 95% humidity, and 5% CO2. RPMI-1640 (Corning) supplemented with 10% FBS (Gibco) and 1% Pen/Strep (Gibco) was used as the culture medium.
Saos-2 cells were seeded in a 48-well plate at the density of 1.5 x 10^4 cells/well and used in the experiment when they reached 80-90% confluence after stabilization for 2 days.
After saos-2 cells were cultured in a 48-well plate to 80-90% confluence, the culture medium was removed and replaced with an osteogenic medium (OM). DMEM (Gibco) containing 10% FBS, 1% Pen/Strep, 100 nM dexamethasone (Sigma), 10 mM β-glycerophosphate (Sigma), and 0.05 mM L-ascorbic acid (Sigma) was used as the OM. Osteogenic differentiation of saos-2 cells by OM was induced for 7 days, and OM was replaced every 2 to 3 days.
When inducing calcification through OM in saos-2 cells, the cells were treated with concentrations of […] of the TNAP inhibitor test compounds with the OM replacement cycle, except for the control group (OM).
After 7 days of OM induction, the medium was removed from each well and the plate was washed twice with PBS. Cells were fixed with 4% paraformaldehyde for 1 hour, then the fixative was removed and washed twice with deionized water (DW). ARS solution was added to the plate and shaken for 1 hour to stain the cells. When the cells were sufficiently stained red, the dye was removed, the cells were washed carefully with DW, dried, and then photographs were taken of the stained cells. The red-stained area represents calcification induced by OM, and the degree of calcification was determined based on the degree of redness. To quantify this, 10% cetylpyridinium chloride was dispensed into the wells and the dye was dissolved. The dye-dissolved solution was transferred to each well of a 96 well plate and absorbance was measured at 540 nm.
The degree of decrease in the measured absorbance by the test compounds based on the absorbance for OM was evaluated as the degree of inhibition of calcification.

The target in another assay is T1, TNAP (Homo sapiens, UniProt P05186).
T1 sequence (P05186 18-502 limits assumed): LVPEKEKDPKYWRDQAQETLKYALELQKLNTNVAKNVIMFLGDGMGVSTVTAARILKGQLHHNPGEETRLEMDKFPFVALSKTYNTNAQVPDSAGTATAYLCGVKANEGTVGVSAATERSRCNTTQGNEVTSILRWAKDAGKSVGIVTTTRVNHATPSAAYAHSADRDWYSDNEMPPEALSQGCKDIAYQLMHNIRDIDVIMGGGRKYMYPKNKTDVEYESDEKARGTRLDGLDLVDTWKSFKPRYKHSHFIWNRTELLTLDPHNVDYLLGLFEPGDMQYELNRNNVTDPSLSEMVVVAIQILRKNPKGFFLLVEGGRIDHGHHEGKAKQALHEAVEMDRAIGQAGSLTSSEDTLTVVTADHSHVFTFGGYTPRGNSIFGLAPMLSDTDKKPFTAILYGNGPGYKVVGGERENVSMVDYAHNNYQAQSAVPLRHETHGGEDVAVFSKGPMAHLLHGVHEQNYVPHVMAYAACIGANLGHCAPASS
Put plainly: TNAP inhibitory activity, colorimetric assay (alkaline phosphatase assay kit ab83369, pNPP substrate). The format is biochemical. The conditions noted are these: TNAP enzyme, 2 hours at room temperature, absorbance 405 nm. Here is the method: The TNAP inhibitory activity of the compounds according to the present invention was analyzed by colorimetric assay.
The experiments were performed according to the protocol of the alkaline phosphatase assay kit ab83369.
TNAP enzyme at a concentration of 0.2 ng/µl was dispensed into a 96-well plate (Costar) (10 µl/well), to which the 10-fold diluted test substance was added (15 µl/well). The plate was incubated at room temperature, shielded from light, for 10 minutes to allow the enzyme and compound to act. After incubation, 125 µl of 1 mM substrate (pNPP) was added to each well of the plate, and the plate was incubated for 2 hours at room temperature in a darkened state to allow the enzyme, substrate, and test compound to act. Absorbance was measured at 405 nm using a microplate reader (Tecan spark), and IC50 was calculated using GraphPad Prism 9. The amount of p-nitrophenol produced was calculated through the absorbance, and the degree of TNAP activity inhibition was evaluated through the degree of inhibition of p-nitrophenol production, and the concentration of the compound that inhibited 50% was calculated as the IC50 value.

Where a name gives a salt, the structure may show the parent alone.

Regarding `COc1ccc(-c2cc(F)c(O)c(F)c2)cc1S(=O)(=O)Nc1cnc2c(c1)C(=O)NCC2` [Example 46, 3',5'-difluoro-4'-hydroxy-4-methoxy-N-(5-oxo-5,6,7,8-tetrahydro-1,6-naphthyridine-3-yl)-[1,1'-biphenyl]-3-sulfonamide], the inhibition at 1 µM in the assay on saos-2 cells is at least 50%. The molecule further came in with an IC50 at TNAP of 100 to 1000 nM.
As to `COc1ccc(-c2cnn(CC(=O)OC(C)(C)C)c2)cc1S(=O)(=O)Nc1cnc2c(c1)C(=O)NCC2` [Example 47, tert-butyl 2-(4-(4-methoxy-3-(N-(5-oxo-5,6,7,8-tetrahydro-1,6-naphthyridine-3-yl)sulfamoyl)phenyl)-1H-pyrazole-1-yl)acetate], the inhibition at 1 µM with saos-2 cells was at least 50%. Further, the IC50 at TNAP is 100 to 1000 nM.
In the case of `COc1ccc(-c2cnn(CC(=O)O)c2)cc1S(=O)(=O)Nc1cnc2c(c1)C(=O)NCC2` [Example 48, 2-(4-(4-methoxy-3-(N-(5-oxo-5,6,7,8-tetrahydro-1,6-naphthyridine-3-yl)sulfamoyl)phenyl)-1H-pyrazole-1-yl)acetic acid], the inhibition at 1 µM with saos-2 cells was at least 50%. This molecule also yielded an IC50 on TNAP of 10 to 100 nM.
For `CCOC(=O)CCc1ccc(-c2ccc(OC)c(S(=O)(=O)Nc3cnc4c(c3)C(=O)NCC4)c2)cc1` [Example 49, ethyl 3-(4'-methoxy-3'-(N-(5-oxo-5,6,7,8-tetrahydro-1,6-naphthyridine-3-yl)sulfamoyl)-[1,1'-biphenyl]-4-yl)propanoate] the same measures were at least 50% and 10 to 100 nM.
For `COc1ccc(-c2ccc(CCC(=O)O)cc2)cc1S(=O)(=O)Nc1cnc2c(c1)C(=O)NCC2` [Example 50, 3-(4'-methoxy-3'-(N-(5-oxo-5,6,7,8-tetrahydro-1,6-naphthyridine-3-yl)sulfamoyl)-[1,1'-biphenyl]-4-yl)propanoic acid] the same measures were at least 50% and 10 to 100 nM.
For `COc1ccc(C2=CCOCC2)cc1S(=O)(=O)Nc1cnc2c(c1)C(=O)NCC2` [Example 51, 5-(3,6-dihydro-2H-pyran-4-yl)-2-methoxy-N-(5-oxo-5,6,7,8-tetrahydro-1,6-naphthyridine-3-yl)benzenesulfonamide] the same measures were at least 50% and 100 to 1000 nM.
In the case of `COc1ccc(C2=CCN(C(=O)OC(C)(C)C)CC2)cc1S(=O)(=O)Nc1cnc2c(c1)C(=O)NCC2` [Example 52, tert-butyl 4-(4-methoxy-3-(N-(5-oxo-5,6,7,8-tetrahydro-1,6-naphthyridine-3-yl)sulfamoyl)phenyl)-3,6-dihydropyridine-1(2H)-carboxylate], in the assay on saos-2 cells, the inhibition at 1 µM was at least 50%. The IC50 at TNAP lay within 100 to 1000 nM.
On the same counts, the results for `COc1ccc(C2=CCNCC2)cc1S(=O)(=O)Nc1cnc2c(c1)C(=O)NCC2` [Example 53, 2-methoxy-N-(5-oxo-5,6,7,8-tetrahydro-1,6-naphthyridine-3-yl)-5-(1,2,3,6-tetrahydropyridine-4-yl)benzenesulfonamide hydrochloride] are 0 to 50% and 100 to 1000 nM.
For `COc1ccc(-c2cnn(C3CCCCO3)c2)cc1S(=O)(=O)Nc1cnc2c(c1)C(=O)NCC2` (centres unmarked) [Example 54, 2-methoxy-N-(5-oxo-5,6,7,8-tetrahydro-1,6-naphthyridine-3-yl)-5-(1-(tetrahydro-2H-pyran-2-yl)-1H-pyrazole-4-yl)benzenesulfonamide] the same measures were at least 50% and 100 to 1000 nM.
For `COc1ccc(-c2cn[nH]c2)cc1S(=O)(=O)Nc1cnc2c(c1)C(=O)NCC2` [Example 55, 2-methoxy-N-(5-oxo-5,6,7,8-tetrahydro-1,6-naphthyridine-3-yl)-5-(1H-pyrazole-4-yl)benzenesulfonamide] the same measures were at least 50% and 100 to 1000 nM.
Turning to `O=C1NCCc2ncc(NS(=O)(=O)c3cc(F)ccc3Br)cc21` [Example 56, 2-bromo-5-fluoro-N-(5-oxo-5,6,7,8-tetrahydro-1,6-naphthyridine-3-yl)benzenesulfonamide], in the assay with saos-2 cells, the inhibition at 1 µM was at least 50%. This molecule also came in with an IC50 at TNAP of 100 to 1000 nM.
On to `COc1ccc(-c2cnn(C)c2)cc1S(=O)(=O)Nc1cnc2c(c1)C(=O)NCC2` [Example 57, 2-methoxy-5-(1-methyl-1H-pyrazole-4-yl)-N-(5-oxo-5,6,7,8-tetrahydro-1,6-naphthyridine-3-yl)benzenesulfonamide], for which, in the assay on saos-2 cells, the inhibition at 1 µM is at least 50%. This molecule also yielded an IC50 at TNAP of 100 to 1000 nM.
For `COc1ccc(-c2cnn(C(C)(C)C(N)=O)c2)cc1S(=O)(=O)Nc1cnc2c(c1)C(=O)NCC2` [Example 58, 2-(4-(4-methoxy-3-(N-(5-oxo-5,6,7,8-tetrahydro-1,6-naphthyridine-3-yl)sulfamoyl)phenyl)-1H-pyrazole-1-yl)-2-methylpropanamide] the same measures were 0 to 50% and at least 1000 nM.
Turning to `CCOC(=O)C(C)(C)n1cc(-c2ccc(OC)c(S(=O)(=O)Nc3cnc4c(c3)C(=O)NCC4)c2)cn1` [Example 59, ethyl 2-(4-(4-methoxy-3-(N-(5-oxo-5,6,7,8-tetrahydro-1,6-naphthyridine-3-yl)sulfamoyl)phenyl)-1H-pyrazole-1-yl)-2-methylpropanoate], the inhibition at 1 µM in the assay with saos-2 cells is at least 50%. This molecule yielded an IC50 at TNAP of 100 to 1000 nM.
For the molecule `COc1ccc(-c2cnn(C(C)(C)C(=O)O)c2)cc1S(=O)(=O)Nc1cnc2c(c1)C(=O)NCC2` [Example 60, 2-(4-(4-methoxy-3-(N-(5-oxo-5,6,7,8-tetrahydro-1,6-naphthyridine-3-yl)sulfamoyl)phenyl)-1H-pyrazole-1-yl)-2-methylpropanoic acid], in the assay with saos-2 cells, the inhibition at 1 µM was at least 50%. On TNAP, this molecule yielded an IC50 of 100 to 1000 nM.
On to `COc1ccc(C2=CCN(C(C)=O)CC2)cc1S(=O)(=O)Nc1cnc2c(c1)C(=O)NCC2` [Example 61, 5-(1-acetyl-1,2,3,6-tetrahydropyridine-4-yl)-2-methoxy-N-(5-oxo-5,6,7,8-tetrahydro-1,6-naphthyridine-3-yl)benzenesulfonamide], for which the inhibition at 1 µM in the assay with saos-2 cells is at least 50%. Further, at TNAP, the half-maximal inhibitory concentration (IC50) is 100 to 1000 nM.
On the same counts, the results for `COc1ccc(C2=CCCOC2)cc1S(=O)(=O)Nc1cnc2c(c1)C(=O)NCC2` [Example 62, 5-(5,6-dihydro-2H-pyran-3-yl)-2-methoxy-N-(5-oxo-5,6,7,8-tetrahydro-1,6-naphthyridine-3-yl)benzenesulfonamide] are at least 50% and 10 to 100 nM.
For `COc1ccc(C2=CCCCC2)cc1S(=O)(=O)Nc1cnc2c(c1)C(=O)NCC2` [Example 63, 4-methoxy-N-(5-oxo-5,6,7,8-tetrahydro-1,6-naphthyridine-3-yl)-2',3',4',5'-tetrahydro-[1,1'-biphenyl]-3-sulfonamide] the same measures were below 0% and 100 to 1000 nM.
On the same counts, the results for `COc1ccc(C2=CCC(F)(F)CC2)cc1S(=O)(=O)Nc1cnc2c(c1)C(=O)NCC2` [Example 64, 4',4'-difluoro-4-methoxy-N-(5-oxo-5,6,7,8-tetrahydro-1,6-naphthyridine-3-yl)-2',3',4',5'-tetrahydro-[1,1'-biphenyl]-3-sulfonamide] are below 0% and at least 1000 nM.
